Experimental data taken from patent publication US12448389B2, “BRM targeting compounds and associated methods of use” (Prelude Therapeutics Incorporated, priority 2020, dated 2025).

What was measured:
SMARCA2-HiBiT = target: T1, SMARCA2-HiBiT (Homo sapiens, UniProt P51531); experiment: SMARCA2 HiBiT degradation assay in HeLa cells; assay type: cell-based; details: 18 hours incubation; for DC50: read-out: HeLa_HiBit-SM2 DC50; for Dmax: HeLa, read-out: HeLa-HiBit-SM2 Dmax (%)
T1 construct: SMARCA2-HiBiT knock-in Hela monoclonal cell (CS302366); host or cells: HeLa monoclonal knock-in line (CRISPR HiBiT knock-in at the endogenous locus, heterozygous)
T1 sequence (P51531 whole entry): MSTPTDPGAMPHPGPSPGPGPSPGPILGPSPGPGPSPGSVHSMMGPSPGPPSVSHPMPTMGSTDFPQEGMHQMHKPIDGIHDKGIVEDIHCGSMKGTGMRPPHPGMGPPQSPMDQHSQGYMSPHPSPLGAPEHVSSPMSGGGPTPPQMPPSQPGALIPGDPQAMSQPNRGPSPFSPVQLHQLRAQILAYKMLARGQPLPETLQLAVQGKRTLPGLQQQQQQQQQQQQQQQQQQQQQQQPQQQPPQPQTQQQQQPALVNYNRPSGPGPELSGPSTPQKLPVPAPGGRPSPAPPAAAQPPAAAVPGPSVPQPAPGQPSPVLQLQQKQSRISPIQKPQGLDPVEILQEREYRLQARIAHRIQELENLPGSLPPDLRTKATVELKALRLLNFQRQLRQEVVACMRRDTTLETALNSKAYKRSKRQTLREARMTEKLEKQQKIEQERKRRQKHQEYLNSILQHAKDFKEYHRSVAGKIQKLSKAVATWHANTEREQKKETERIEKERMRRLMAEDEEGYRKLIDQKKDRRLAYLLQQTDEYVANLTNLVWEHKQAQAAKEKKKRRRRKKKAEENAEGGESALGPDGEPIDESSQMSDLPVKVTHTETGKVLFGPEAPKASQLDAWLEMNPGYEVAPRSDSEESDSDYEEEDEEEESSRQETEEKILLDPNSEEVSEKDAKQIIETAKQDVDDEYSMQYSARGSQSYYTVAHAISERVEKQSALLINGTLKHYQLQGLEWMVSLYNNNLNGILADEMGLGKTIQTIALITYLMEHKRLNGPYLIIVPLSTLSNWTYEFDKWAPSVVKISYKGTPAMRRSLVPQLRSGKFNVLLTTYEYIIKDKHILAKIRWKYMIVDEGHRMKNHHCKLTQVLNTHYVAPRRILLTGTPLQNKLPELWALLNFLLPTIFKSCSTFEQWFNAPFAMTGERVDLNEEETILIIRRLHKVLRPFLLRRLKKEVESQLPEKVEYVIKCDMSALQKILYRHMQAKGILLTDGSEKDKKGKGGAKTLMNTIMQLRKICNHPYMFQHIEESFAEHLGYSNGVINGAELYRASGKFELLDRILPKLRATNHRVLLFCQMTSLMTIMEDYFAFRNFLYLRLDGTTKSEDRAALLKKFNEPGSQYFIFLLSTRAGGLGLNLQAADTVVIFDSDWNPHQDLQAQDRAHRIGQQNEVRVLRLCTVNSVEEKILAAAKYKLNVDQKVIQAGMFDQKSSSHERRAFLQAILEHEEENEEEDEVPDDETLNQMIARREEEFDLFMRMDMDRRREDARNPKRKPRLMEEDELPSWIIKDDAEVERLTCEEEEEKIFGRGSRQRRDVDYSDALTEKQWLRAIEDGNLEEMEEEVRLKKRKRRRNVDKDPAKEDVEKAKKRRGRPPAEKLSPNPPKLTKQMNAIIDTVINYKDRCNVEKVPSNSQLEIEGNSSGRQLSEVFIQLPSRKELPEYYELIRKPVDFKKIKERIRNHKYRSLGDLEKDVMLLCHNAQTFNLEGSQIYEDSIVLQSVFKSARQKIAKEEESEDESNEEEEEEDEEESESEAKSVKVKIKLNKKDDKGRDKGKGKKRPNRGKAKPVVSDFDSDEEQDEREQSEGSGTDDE
In short: (§1)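 HeLa monoclonal lines with heterozygous HiBiT knock-in were seeded at 2500 cells/well in EMEM with 10% FBS and treated with compound for 18 h at 37 °C. Remaining tagged protein was measured by Nano-Glo HiBiT lytic luminescence after 30–60 min at RT, and values came from curve fitting.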

SMARCA4-HiBiT = target: T2, SMARCA4-HiBiT (Homo sapiens, UniProt P51532); experiment: SMARCA4 HiBiT degradation assay in HeLa cells; assay type: cell-based; details: 18 hours incubation; for DC50: read-out: HeLa-HiBit-SM4 DC50; for Dmax: HeLa, read-out: HeLa-HiBit-SM4 Dmax (%)
T2 construct: SMARCA4-HiBiT knock-in Hela monoclonal cell (CS3023226); host or cells: HeLa monoclonal knock-in line (CRISPR HiBiT knock-in at the endogenous locus, heterozygous)
T2 sequence (P51532 whole entry): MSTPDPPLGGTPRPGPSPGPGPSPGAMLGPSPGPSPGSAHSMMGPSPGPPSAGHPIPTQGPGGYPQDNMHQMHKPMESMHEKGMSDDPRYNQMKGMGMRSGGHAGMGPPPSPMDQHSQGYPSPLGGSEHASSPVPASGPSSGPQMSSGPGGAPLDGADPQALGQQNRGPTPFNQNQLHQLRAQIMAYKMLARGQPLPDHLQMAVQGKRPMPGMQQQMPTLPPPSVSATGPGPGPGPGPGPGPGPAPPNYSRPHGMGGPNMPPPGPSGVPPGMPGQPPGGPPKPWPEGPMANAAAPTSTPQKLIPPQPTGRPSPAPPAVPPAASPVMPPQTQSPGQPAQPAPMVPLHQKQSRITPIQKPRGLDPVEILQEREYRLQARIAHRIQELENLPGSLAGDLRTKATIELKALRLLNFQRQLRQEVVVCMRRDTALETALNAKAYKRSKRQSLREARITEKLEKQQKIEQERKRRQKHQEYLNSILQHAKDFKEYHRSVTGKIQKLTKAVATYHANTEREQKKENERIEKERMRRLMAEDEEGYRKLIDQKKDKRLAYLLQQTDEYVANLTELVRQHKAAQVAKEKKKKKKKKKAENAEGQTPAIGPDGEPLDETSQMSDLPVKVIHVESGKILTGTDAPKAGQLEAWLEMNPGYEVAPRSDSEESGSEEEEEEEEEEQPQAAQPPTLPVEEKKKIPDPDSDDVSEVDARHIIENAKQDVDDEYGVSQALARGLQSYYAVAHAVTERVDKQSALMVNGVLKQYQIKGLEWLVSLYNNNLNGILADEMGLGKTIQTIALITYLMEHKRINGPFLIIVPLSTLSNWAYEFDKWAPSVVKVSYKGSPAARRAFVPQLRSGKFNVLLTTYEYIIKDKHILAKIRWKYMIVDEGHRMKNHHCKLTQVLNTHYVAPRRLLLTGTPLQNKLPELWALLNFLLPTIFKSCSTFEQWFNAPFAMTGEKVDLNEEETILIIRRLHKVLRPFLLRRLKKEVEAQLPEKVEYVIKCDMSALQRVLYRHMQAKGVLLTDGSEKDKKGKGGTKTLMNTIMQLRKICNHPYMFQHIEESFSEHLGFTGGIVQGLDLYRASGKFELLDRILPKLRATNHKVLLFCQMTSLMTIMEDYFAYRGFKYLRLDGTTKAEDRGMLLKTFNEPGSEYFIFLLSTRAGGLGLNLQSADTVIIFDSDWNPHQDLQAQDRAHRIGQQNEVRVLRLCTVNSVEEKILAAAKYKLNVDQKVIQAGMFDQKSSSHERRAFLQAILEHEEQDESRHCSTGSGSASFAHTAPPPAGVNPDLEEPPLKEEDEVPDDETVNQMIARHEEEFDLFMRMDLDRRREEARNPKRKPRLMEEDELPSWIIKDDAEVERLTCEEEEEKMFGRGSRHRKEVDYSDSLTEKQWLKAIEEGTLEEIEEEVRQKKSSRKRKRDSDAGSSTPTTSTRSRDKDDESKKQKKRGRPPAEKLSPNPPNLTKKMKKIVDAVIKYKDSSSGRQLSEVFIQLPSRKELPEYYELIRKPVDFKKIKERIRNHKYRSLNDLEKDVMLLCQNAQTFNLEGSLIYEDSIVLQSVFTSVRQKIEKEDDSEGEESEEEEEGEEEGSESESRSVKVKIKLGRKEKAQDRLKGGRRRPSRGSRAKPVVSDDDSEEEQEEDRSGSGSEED
In short: as §1

Row | Structure (SMILES) | DC50 (SMARCA2-HiBiT) [nM] | Dmax (SMARCA2-HiBiT) [%] | DC50 (SMARCA4-HiBiT) [nM] | Dmax (SMARCA4-HiBiT) [%]
1 | CC1(C)CN(CC2CCN(c3ccc4c(c3)C(=O)N(C3CCC(=O)NC3=O)C4)CC2)CCN1C(=O)N1CCN2c3cc(-c4ccccc4O)nnc3NC[C@H]2C1 (stereo partly drawn) [Example 105, 3-(6-(4-((4-((S)-2-(2-hydroxyphenyl)-6,6a,7,8,9,10-hexahydro-5H-pyrazino[1′,2′:4,5]pyrazino[2,3-c]pyridazine-8-carbonyl)-3,3-dimethylpiperazin-1-yl)methyl)piperidin-1-yl)-1-oxoisoindolin-2-yl)piperidine-2,6-dione] | < 10 | > 85 | < 10 | > 85
2 | O=C1CCC(N2Cc3ccc(N4CC[C@H](CN5CCN(C(=O)N6CCN7c8cc(-c9ccccc9O)nnc8NC[C@H]7C6)CC5)[C@@H](F)C4)cc3C2=O)C(=O)N1 (stereo partly drawn) [Example 205, 3-[5-[(3R.4R)-3-fluoro-4-[[4-[(10S)-4-(2-hydroxyphenyl)-1,5,6,8,12-pentazatricyclo[8.4.0.02,7]tetradeca-2,4,6-triene-12-carbonyl]piperazin-1-yl]methyl]piperidin-1-yl]-3-oxo-1H-isoindol-2-yl]piperidine-2.6-dione] | < 10 | > 85 | 10 to 100 | 75 to 85
3 | O=C1CCC(NC(=O)c2ccc(N3CCC(CN4CCC(N5CCN6c7cc(-c8ccccc8O)nnc7NC[C@H]6C5)CC4)CC3)cn2)C(=O)N1 (stereo partly drawn) [Example 24, N-(2,6-dioxopiperidin-3-yl)-5-(4-((4-((S)-2-(2-hydroxyphenyl)-5,6,6a,7,9,10-hexahydro-8H-pyrazino[1′,2′:4,5]pyrazino[2,3-c]pyridazin-8-yl)piperidin-1-yl)methyl)piperidin-1-yl)picolinamide] | < 10 | > 85 | < 10 | 75 to 85
4 | CC(CN1CCC(N2CCN3c4cc(-c5ccccc5O)nnc4NC[C@H]3C2)CC1)Oc1ccc2c(c1)CN([C@@H]1CCC(=O)NC1=O)C2=O (stereo partly drawn) [Example 214, (3R)-3-(5-((1-(4-((S)-2-(2-hydroxyphenyl)-5,6,6a,7,9,10-hexahydro-8H-pyrazino[1′,2′:4,5]pyrazino[2,3-c]pyridazin-8-yl)piperidin-1-yl)propan-2-yl)oxy)-1-oxoisoindolin-2-yl)piperidine-2,6-dione] | < 10 | 75 to 85 | < 10 | 50 to 75
5 | O=C1CCC(N2C(=O)c3ccc(Oc4ccc(N5CCC(N6CCN7c8cc(-c9ccccc9O)nnc8NC[C@H]7C6)CC5)cc4)cc3C2=O)C(=O)N1 (stereo partly drawn) [Example 241, 2-(2,6-dioxopiperidin-3-yl)-5-(4-(4-((S)-2-(2-hydroxyphenyl)-5,6,6a,7,9,10-hexahydro-8H-pyrazino[1′,2′:4,5]pyrazino[2,3-c]pyridazin-8-yl)piperidin-1-yl)phenoxy)isoindoline-1,3-dione] | < 10 | 50 to 75 | 10 to 100 | 75 to 85
6 | O=C1CCC(N2Cc3ccc(N4CCN(CC5CCN(C(=O)N6CCN7c8cc(-c9ccccc9O)nnc8NC[C@H]7C6)CC5)CC4)cc3C2=O)C(=O)N1 (stereo partly drawn) [Example 146, 3-(6-(4-((1-((S)-2-(2-hydroxyphenyl)-6,6a,7,8,9,10-hexahydro-5H-pyrazino[1′,2′:4,5]pyrazino[2,3-c]pyridazine-8-carbonyl)piperidin-4-yl)methyl)piperazin-1-yl)-1-oxoisoindolin-2-yl) piperidine-2,6-dione] | < 10 | > 85 | < 10 | > 85
7 | O=C1CCC(N2C(=O)c3ccc(N4CCC(CN5C6COCC5CC(CN5CCN7c8cc(-c9ccccc9O)nnc8NC[C@H]7C5)C6)CC4)cc3C2=O)C(=O)N1 (stereo partly drawn) [Example 133, 2-(2,6-dioxopiperidin-3-yl)-5-(4-((7-(((S)-2-(2-hydroxyphenyl)-5,6,6a,7,9,10-hexahydro-8H-pyrazino[1′,2′:4,5]pyrazino[2,3-c]pyridazin-8-yl)methyl)-3-oxa-9-azabicyclo[3.3.1]nonan-9-yl)methyl)piperidin-1-yl)isoindoline-1,3-dione] | < 10 | 50 to 75 | < 10 | 50 to 75
8 | O=C1CCC(N2Cc3cc(C4CCN(C5CCCN(CCN6CCN7c8cc(-c9ccccc9O)nnc8NC[C@H]7C6)C5)CC4)ccc3C2=O)C(=O)N1 (stereo partly drawn) [Example 211, 3-(5-(1′-(2-((S)-2-(2-hydroxyphenyl)-5,6,6a,7,9,10-hexahydro-8H-pyrazino[1′,2′:4,5]pyrazino[2,3-c]pyridazin-8-yl)ethyl)-[1,3′-bipiperidin]-4-yl)-1-oxoisoindolin-2-yl)piperidine-2,6-dione] | < 10 | > 85 | < 10 | > 85

Now from value to compound:

Row | DC50 (SMARCA2-HiBiT) [nM] | Dmax (SMARCA2-HiBiT) [%] | DC50 (SMARCA4-HiBiT) [nM] | Dmax (SMARCA4-HiBiT) [%] | Structure (SMILES)
9 | < 10 | > 85 | < 10 | > 85 | O=C1CCC(N2C(=O)c3ccc(N4CC(CN5CCC(CN6CCN7c8cc(-c9ccccc9O)nnc8NC[C@H]7C6)CC5)C4)cc3C2=O)C(=O)N1 (stereo partly drawn) [Example 247, 2-(2,6-dioxopiperidin-3-yl)-5-(3-((4-(((S)-2-(2-hydroxyphenyl)-5,6,6a,7,9,10-hexahydro-8H-pyrazino[1′,2′:4,5]pyrazino[2,3-c]pyridazin-8-yl)methyl)piperidin-1-yl)methyl)azetidin-1-yl)isoindoline-1,3-dione]
10 | < 10 | 50 to 75 | < 10 | 50 to 75 | O=C1CCC(N2C(=O)c3ccc(N4CCCC5(CCN(CCN6CCN7c8cc(-c9ccccc9O)nnc8NC[C@H]7C6)CC5)C4)cc3C2=O)C(=O)N1 (stereo partly drawn) [Example 94, 2-(2,6-dioxopiperidin-3-yl)-5-(9-(2-((S)-2-(2-hydroxyphenyl)-5,6,6a,7,9,10-hexahydro-8H-pyrazino[1′,2′:4,5]pyrazino[2,3-c]pyridazin-8-yl)ethyl)-2,9-diazaspiro [5.5]undecan-2-yl) isoindoline-1,3-dione]
11 | < 10 | 75 to 85 | < 10 | 50 to 75 | CC(C1CCN(c2ccc3c(c2)C(=O)N(C2CCC(=O)NC2=O)C3=O)CC1)N1CCC(CN2CCN3c4cc(-c5ccccc5O)nnc4NCC3C2)CC1 (stereo in doubt) [Example 160, 2-(2,6-dioxopiperidin-3-yl)-5-[4-[1-[4-[[(10S)-4-(2-hydroxyphenyl)-1,5,6,8,12-pentazatricyclo[8.4.0.02,7]tetradeca-2(7),3,5-trien-12-yl]methyl]piperidin-1-yl]ethyl]piperidin-1-yl]isoindole-1,3-dione]
12 | < 10 | ≤ 50 | < 10 | ≤ 50 | O=C1CCC(N2C(=O)c3ccc(N4CCC(CN5CCc6cnc(N7CCN8c9cc(-c%10ccccc%10O)nnc9NC[C@H]8C7)nc6C5)CC4)cc3C2=O)C(=O)N1 (stereo partly drawn) [Example 60, 2-(2,6-dioxopiperidin-3-yl)-5-(4-((2-((S)-2-(2-hydroxyphenyl)-5,6,6a,7,9,10-hexahydro-8H-pyrazino[1′,2′:4,5]pyrazino[2,3-c]pyridazin-8-yl)-5,8-dihydropyrido[3,4-d]pyrimidin-7(6H)-yl)methyl)piperidin-1-yl) isoindoline-1,3-dione]
13 | < 10 | 50 to 75 | < 10 | 50 to 75 | C[C@@H]1CN(CC2CCN(c3ccc4c(c3)C(=O)N(C3CCC(=O)NC3=O)C4=O)CC2)CCN1C(=O)N1CCN2c3cc(-c4ccccc4O)nnc3NC[C@H]2C1 (stereo partly drawn) [Example 115, 2-(2,6-dioxopiperidin-3-yl)-5-(4-(((R)-4-((S)-2-(2-hydroxyphenyl)-6,6a,7,8,9,10-hexahydro-5H-pyrazino[1′,2′:4,5]pyrazino[2,3-c]pyridazine-8-carbonyl)-3-methyl-piperazin-1-yl)methyl)piperidin-1-yl)isoindoline-1,3-dione]
14 | < 10 | > 85 | < 10 | > 85 | C[C@@H]1C[C@H](CN2CCC(CN3CCN4c5cc(-c6ccccc6O)nnc5NC[C@H]4C3)CC2)CCN1c1ccc2c(c1)C(=O)N(C1CCC(=O)NC1=O)C2=O (stereo partly drawn) [Example 184, 2-(2,6-dioxopiperidin-3-yl)-5-[(2R,4R)-4-[[4-[[(10S)-4-(2-hydroxyphenyl)-1,5,6,8,12-pentazatricyclo[8.4.0.02,7]tetradeca-2,4,6-trien-12-yl]methyl]piperidin-1-yl]methyl]-2-methylpiperidin-1-yl]isoindole-1,3-dione]
15 | < 10 | > 85 | < 10 | > 85 | O=C1CCC(N2C(=O)c3ccc(N4CCC5(CC4)CC(N4C[C@@H]6[C@@H](CN7CCN8c9cc(-c%10ccccc%10O)nnc9NC[C@H]8C7)[C@@H]6C4)C5)cc3C2=O)C(=O)N1 (stereo partly drawn) [Example 93, 2-(2,6-dioxopiperidin-3-yl)-5-(2-((1R,5S,6s)-6-(((S)-2-(2-hydroxyphenyl)-5,6,6a,7,9,10-hexahydro-8H-pyrazino[1′,2′:4,5]pyrazino[2,3-c]pyridazin-8-yl)methyl)-3-azabicyclo[3.1.0]hexan-3-yl)-7-azaspiro[3.5]nonan-7-yl)isoindoline-1,3-dione]
16 | < 10 | 75 to 85 | < 10 | 75 to 85 | O=C1CCC(N2C(=O)c3ccc(N4CCC5(CN6CCC(CN7CCN8c9cc(-c%10ccccc%10O)nnc9NC[C@H]8C7)CC6)CC5C4)cc3C2=O)C(=O)N1 (stereo partly drawn) [Example 189, 2-(2,6-dioxopiperidin-3-yl)-5-[6-[[4-[[(10S)-4-(2-hydroxyphenyl)-1,5,6,8,12-pentazatricyclo[8.4.0.02,7]tetradeca-2(7),3,5-trien-12-yl]methyl]piperidin-1-yl]methyl]-3-azabicyclo[4.1.0]heptan-3-yl]isoindole-1,3-dione]
